Among the data in the Kinase Knowledgebase extract (Sharma et al. 2016) are IC50 and inhibition values, retold here.

One experiment concerns the target MAPK14 (human) (UniProt Q16539). The experiment is described as follows: p38 Kinase Inhibition.
The next experiment concerns the target MAPK14 (UniProt Q16539). In words: p38 --- TNF-alpha Inhibition. The note with it: for IC50: thp1.

The term IC50 denotes the concentration at which inhibition is half-maximal. What is called inhibition is the drop in the measured response relative to a control, in per cent. Low values mean little suppression, high ones strong suppression.

Sequence of MAPK14 (human) (Q16539 whole entry, looked up): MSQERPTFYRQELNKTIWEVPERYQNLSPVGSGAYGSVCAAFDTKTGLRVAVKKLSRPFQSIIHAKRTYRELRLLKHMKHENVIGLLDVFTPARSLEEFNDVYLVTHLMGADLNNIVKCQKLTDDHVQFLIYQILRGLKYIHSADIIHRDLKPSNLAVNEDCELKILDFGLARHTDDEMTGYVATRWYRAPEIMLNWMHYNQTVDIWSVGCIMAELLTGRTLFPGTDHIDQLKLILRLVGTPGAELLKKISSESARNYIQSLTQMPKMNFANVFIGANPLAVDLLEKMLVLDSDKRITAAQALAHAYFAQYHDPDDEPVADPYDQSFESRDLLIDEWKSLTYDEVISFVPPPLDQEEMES
Sequence of MAPK14 (Q16539 whole entry, looked up): as above

As to `Clc1ccc(-c2nc3cccccc-3c2-c2ccncc2)cc1`, the figures for the IC50 at MAPK14 (human) and against MAPK14 were 2.79 µM and 1.4 µM, respectively.

As for `Fc1cc(-c2c3cccccc-3nc2-c2cccc(Cl)c2)ccn1`, the IC50 at MAPK14 (human) was found to be 0.935 µM; on MAPK14, 0.95 µM.

Turning to `Fc1ccc(-c2nc3cccccc-3c2-c2ccnc(F)c2)cc1`, the values for the concentration for half-maximal inhibition (IC50) at MAPK14 (human) and at MAPK14 were 3.28 µM and 1.56 µM, respectively.

Take `COc1ccc(-c2nc3cccccc-3c2-c2ccncc2)cc1`: the IC50 on MAPK14 (human) was found to be 24.1 µM. In addition, the inhibition on MAPK14 (thp1, concentration not given here) was found to be 37%.

For `FC(F)(F)c1cccc(-c2nc3cccccc-3c2-c2ccncc2)c1`, the IC50 against MAPK14 (human) is 1.47 µM; on MAPK14 it was 0.16 µM.

Consider `Fc1ccc(-c2nc3cccccc-3c2-c2ccncc2)cc1`, for which the half-maximal inhibitory concentration (IC50) was determined as 1.34 µM at MAPK14 (human) and 0.23 µM against MAPK14.

On to `CNc1nccc(-c2c3cccccc-3nc2-c2cccc(C(F)(F)F)c2)n1`, for which the IC50 at MAPK14 (human) is 2.85 µM; against MAPK14, 0.675 µM.

On to `CSc1nccc(-c2c3cccccc-3nc2-c2ccc(F)cc2)n1`, for which the figures for the IC50 against MAPK14 (human) and at MAPK14 were 2.59 µM and 4.51 µM, respectively.

For `CNc1nccc(-c2c3cccccc-3nc2-c2ccc(F)cc2)n1`, the half-inhibitory concentration (IC50) on MAPK14 (human) was 17.1 µM; on MAPK14 it was 1.71 µM.

Turning to `Cc1ccc(-c2nc3cccccc-3c2-c2ccncc2)cc1`, the IC50 at MAPK14 (human) is 4.76 µM; on MAPK14 it was 0.263 µM.

On to `Clc1cccc(-c2nc3cccccc-3c2-c2ccncc2)c1`, for which the IC50 on MAPK14 (human) came to 4.96 µM; against MAPK14, 1.42 µM.

For `Fc1cc(-c2c3cccccc-3nc2-c2cccc(C(F)(F)F)c2)ccn1`, the results for the IC50 on MAPK14 (human) and at MAPK14 were 12.1 µM and 1.61 µM, respectively.
